From US8389679B2, “Targeted antimicrobial moieties” (priority 2009, dated 2013)
Entries after “also recorded” stand apart in the source; their conditions may differ. Like-named read-outs stand apart in the source and are kept apart here. Where a SMILES comes first, the peptide text is derived from it. Where no end group is shown, it is not given here.

Key:
target microorganisms = assay: Screen of synthesized peptides for binding to target microorganisms (targeting peptides, Tables 2 and 3); details: microorganism(s) the targeting peptide was identified as binding to (Table 3)
Protocol: Once noted, these peptides were batch synthesized on a multiplex peptide synthesizer, yielding 5-10 mg of each peptide that could readily be screened for biological activity (e.g., binding activity and/or antimicrobial activity.
Other suitable targeting peptides include the peptides that have been identified as binding to particular target organisms as shown in Table 3 and/or Table 4.

S. mutans [1] = system: S. mutans
S. epidermidis [2] = assay: Microbial population shift assay (mixed planktonic culture); format: cell-based, Staphylococcus epidermidis; details: 10 μM peptide, 24 h, FIG. 16
Protocol: (§1) FIG. 16 illustrates the selective activity of dual-targeted and single-targeted MH-STAMPs in mixed culture. […] After incubation, cfu/mL of remaining constituent species were quantitated after plating to selective media. * indicates under 200 surviving cfu/mL recovered.
(§2) Peptide (10 μM) or mock-treatment (1×PBS) was then added and samples were incubated at 37° C. for 24 h under anaerobic conditions (80% N2, 15% CO2, 5% H2). […] Plates were then incubated 37° C. under aerobic conditions (TH plates were incubated anaerobically) and colonies counted after 24 h to determine survivors. […] Gram stains and direct microscopic observation (from select isolated colonies) were undertaken to confirm species identity (data not shown). The detection limit of the assay was 200 cfu/mL.

P. aeruginosa [3] = assay: as above; format: cell-based, Pseudomonas aeruginosa; details: 10 μM peptide, 24 h, FIG. 16
Protocol: as §1, §2

E. coli [4] = assay: as above; format: cell-based, Escherichia coli; details: 10 μM peptide, 24 h, FIG. 16
Protocol: as §1, §2

S. mutans [5] = assay: Post-antibiotic effect assay (growth retardation in monoculture); details: peptide for 10 min, then fresh medium, FIG. 15A
Protocol: (§3) Agent was then removed and fresh media returned. Culture recovery was measured over time (OD600). Plots represent the average of at least 3 independent experiments with standard deviations.
(§4) The activity and selectivity of MH-STAMPs after a 10 min incubation was determined by growth retardation experiments against targeted and untargeted bacteria in monocultures, as described previously [10, 11]. Cells from overnight cultures were diluted to ˜5×10^6 cfu/mL in MH (or TH with 1% sucrose for S. mutans), normalized by OD600 0.05-0.1 and seeded to 96-well plates. Cultures were then grown under the appropriate conditions for 2 h (3 h for S. mutans) prior to the addition of peptides for 10 min. Plates were then centrifuged at 3000×g for 5 min, the supernatants discarded, fresh medium returned (MH or TH without sucrose for S. mutans), and incubation resumed. Bacterial growth after treatment was then monitored over time by OD600.

S. mutans [6] = assay: Microbial population shift assay (mixed planktonic culture); format: cell-based, Streptococcus mutans; details: 10 μM peptide, 24 h, FIG. 16
Protocol: as §1, §2

bacteria = assay: Bacterial binding of blank peptide (data not shown)
S. mutans [7] = assay: Growth phenotype or other activity induced by peptide (Table 9); format: cell-based
S. mutans biofilms = assay: Binding of targeting peptides by fluorescent microscopy; design: species or system Streptococcus mutans; details: 25 μM peptide, 5 min; data not shown
Protocol: Binding of Targeting Peptides. The binding of peptides 1—2, 1—3, 1—4, 1—6, 2—1, and 3—1 was assessed by fluorescent microscopy. S. mutans UA159 was grown overnight and diluted 1:5000 in fresh TH with 1% sucrose before seeding to 96-well plates (flat bottom). Biofilms were grown 24 h and the spent medium replaced with 1×PBS containing 25 μM peptide. After 5 min incubation at room temperature, the supernatants were removed and the biofilms washed 2× with 1×PBS and imaged by bright-field and fluorescence microscopy (Nikon E400). Digital images were collected and analyzed for semiquantitative binding assessments with the manufacturers supplied software (SPOT, Diagnostics) (6).

S. aureus = assay: Post-antibiotic effect assay (growth retardation in monoculture); format: cell-based, Staphylococcus aureus; details: peptide for 10 min, then fresh medium, FIG. 15D
P. aeruginosa [8] = assay: as above; details: peptide for 10 min, then fresh medium, FIG. 15B
E. coli [9] = assay: as above; format: cell-based, Escherichia coli; details: peptide for 10 min, then fresh medium, FIG. 15E
S. epidermidis [10] = assay: as above; details: peptide for 10 min, then fresh medium, FIG. 15C
Protocol: as §3, §4

[11] = Library 2 STAMPs, all S. mutans isolates tested, minimum of three independent trials

## 1T-169 (FARVRRLHQNRILTQPLTNLKYCLRQPIYSD; synthetic novel tartgeting peptide IT-169)
Target microorganisms
  Target(s): A. naeslundii, F. nucleatum,; also recorded: P. gingivalis; also recorded: S. epidermidis,; also recorded: S. gordonii, S. mitis, S. mutans,; also recorded: S. oralis, S. salivarious,; also recorded: S. sanguinis

## 1T-170 (AYGKVFSMDIMLSENDKLIVLRISHHSAWH; synthetic novel tartgeting peptide IT-170)
Target microorganisms
  Target(s): P. gingivalis

## CC[C@H](C)[C@H](NC(=O)[C@H](Cc1ccccc1)NC(=O)CCCCCCCNC(=O)[C@H](Cc1ccccc1)NC(=O)[C@H](Cc1c[nH]cn1)NC(=O)[C@H](CC(C)C)NC(=O)[C@H](Cc1c[nH]cn1)NC(=O)[C@H](Cc1ccccc1)NC(=O)[C@H](Cc1c[nH]cn1)NC(=O)[C@@H](N)Cc1ccccc1)C(=O)N[C@@H](CCCCN)C(=O)N[C@@H](Cc1c[nH]cn1)C(=O)N[C@@H](Cc1ccccc1)C(=O)N[C@H](C(=O)N[C@@H](Cc1c[nH]cn1)C(=O)N[C@@H](CCCNC(=N)N)C(=O)N[C@@H](Cc1ccccc1)C(N)=O)[C@@H](C)CC [135(LC)2_1, FHFHLHF-[NH(CH2)7CO]-FIKHFIHRF] (HELM PEPTIDE1{F.H.F.H.L.H.F.[O=C(CCCCCCCN[*:1])[*:2]].F.I.K.H.F.I.H.R.F.[am]}$$$$V2.0; N-terminus assumed)
S. mutans [1]
  S. mutans (MIC): 64 µg/mL

## CC[C@H](C)[C@H](NC(=O)[C@H](Cc1ccccc1)NC(=O)CCCCCCCNC(=O)[C@H](CCCCNC(=O)CNC(=O)CNC(=O)CNC(=O)[C@H](Cc1c[nH]cn1)NC(=O)[C@H](CCCCN)NC(=O)[C@H](CCCNC(=N)N)NC(=O)[C@H](Cc1c[nH]cn1)NC(=O)[C@H](CCCCN)NC(=O)[C@H](CCCNC(=N)N)NC(=O)[C@H](Cc1c[nH]cn1)NC(=O)[C@H](CCCCN)NC(=O)[C@H](CCCNC(=N)N)NC(=O)[C@H](Cc1c[nH]cn1)NC(=O)[C@H](CCCCN)NC(=O)[C@@H](N)CCCCN)NC(=O)CNC(=O)CNC(=O)CNC(=O)[C@H](C)NC(=O)[C@H](CCC(=O)O)NC(=O)[C@H](CC(N)=O)NC(=O)[C@H](C)NC(=O)[C@H](C)NC(=O)[C@H](CC(=O)O)NC(C)=O)C(=O)N[C@@H](CCCNC(=N)N)C(=O)N[C@@H](CCCCN)C(=O)N[C@@H](Cc1ccccc1)C(=O)N[C@@H](CC(C)C)C(=O)N[C@@H](CCCCN)C(=O)N[C@@H](CCCCN)C(=O)N[C@@H](Cc1c[nH]c2ccccc12)C(=O)N[C@@H](CC(C)C)C(=O)N[C@@H](CC(C)C)C(N)=O [BL(KH)-20] (HELM PEPTIDE1{[ac].D.A.A.N.E.A.G.G.G.K.[O=C(CCCCCCCN[*:1])[*:2]].F.I.R.K.F.L.K.K.W.L.L.[am]}|PEPTIDE2{K.K.H.R.K.H.R.K.H.R.K.H.G.G.G}$PEPTIDE1,PEPTIDE2,11:R3-15:R2$$$V2.0)
S. epidermidis [2]
  recoverable S. epidermidis cfu/mL in mixed culture (in words): unchanged numbers
P. aeruginosa [3]
  recoverable P. aeruginosa cfu/mL in mixed culture (in words): not observed
E. coli [4]
  recoverable E. coli cfu/mL in mixed culture (in words): unchanged numbers
S. mutans [5]
  S. mutans growth after treatment (culture recovery, OD600): not altered
S. mutans [6]
  recoverable S. mutans cfu/mL in mixed culture (in words): higher than input cfu/mL

## CC[C@H](C)[C@H](NC(=O)[C@H](Cc1ccccc1)NC(=O)CNC(=O)CNC(=O)CNC(=O)[C@H](Cc1ccccc1)NC(=O)[C@H](Cc1c[nH]cn1)NC(=O)[C@H](CC(C)C)NC(=O)[C@H](Cc1c[nH]cn1)NC(=O)[C@H](Cc1ccccc1)NC(=O)[C@H](Cc1c[nH]cn1)NC(=O)[C@H](Cc1ccccc1)NC(=O)c1ccccc1)C(=O)N[C@@H](CCCCN)C(=O)N[C@@H](Cc1c[nH]cn1)C(=O)N[C@@H](Cc1ccccc1)C(=O)N[C@H](C(=O)N[C@@H](Cc1c[nH]cn1)C(=O)N[C@@H](CCCNC(=N)N)C(=O)N[C@@H](Cc1ccccc1)C(N)=O)[C@@H](C)CC [bz135(L1)2_1, benzoate-FHFHLHFGGGFIKHFIHRF] (HELM PEPTIDE1{[O=C(c1ccccc1)[*:2]].F.H.F.H.L.H.F.G.G.G.F.I.K.H.F.I.H.R.F.[am]}$$$$V2.0)
S. mutans [1]; [11]
  S. mutans (MIC): 32 µg/mL

## Ac-FHFHLHFGGGFIKHFIHRF-NH2 [Ac135(L1)2_1, Ac-FHFHLHFGGGFIKHFIHRF]
S. mutans [1]
  S. mutans (MIC): 32 µg/mL

## DAANEA-GGG (DAANEAGGG; synthetic BL-1 peptide with no bacterial binding)
bacteria
  bacterial binding: no bacterial binding

## EIPIQLANDLANYYDISLDSIFFW [G-4]
S. mutans [7]
  Organism, effect (S. mutans): Biofilm structure

## FHFHLHF (not fully specified (C-terminus)) [PL-135]
S. mutans [1]; FIG. 17 and Table 16
  activity against S. mutans relative to progeny STAMPs: 2 to 4 fold

## FHFHLHFAAAFIKHFIHRF-NH2 [135(L2)2_1, FHFHLHFAAAFIKHFIHRF]
S. mutans [1]
  S. mutans (MIC): 16 µg/mL

## FHFHLHFAGAFIKHFIHRF-NH2 [135(L13)2_1, FHFHLHFAGAFIKHFIHRF]
S. mutans [1]
  S. mutans (MIC): 32 µg/mL

## FHFHLHFGAGAGFIKHFIHRF-NH2 [135(L14)2_1]
S. mutans [1]
  S. mutans (MIC): 32 µg/mL

## FHFHLHFGGGFIKHFIHRF-NH2 [135(L1)2_1, FHFHLHFGGGFIKHFIHRF]
S. mutans [1]
  S. mutans (MIC): 16 µg/mL
  concentration active against S. mutans (MIC): lower than 100 μg/mL

## FHFHLHFGGGGFIKHFIHRF-NH2 [135(G4)2_1]
S. mutans [1]
  S. mutans (MIC): 16 µg/mL

## FHFHLHFGGGGGFIKHFIHRF-NH2 [135(G5)2_1]
S. mutans [1]
  S. mutans (MIC): 16 µg/mL

## FHFHLHFGGGGGGFIKHFIHRF-NH2 [135(G6)2_1]
S. mutans [1]
  S. mutans (MIC): 32 µg/mL

## FHFHLHFGGGGGGGFIKHFIHRF-NH2 [135(G7)2_1]
S. mutans [1]
  S. mutans (MIC): 32 µg/mL

## FHFHLHFGSGSGFIKHFIHRF-NH2 [135(L12)2_1]
S. mutans [1]; [11]
  S. mutans (MIC): 32 µg/mL

## FHFHLHFSGSFIKHFIHRF-NH2 [135(L11)2_1, FHFHLHFSGSFIKHFIHRF]
S. mutans [1]; [11]
  S. mutans (MIC): 32 µg/mL

## FHLHFHFGGGFRHIFHKIF-NH2 [135i(L1)2_1i, FHLHFHFGGGFRHIFHKIF]
S. mutans [1]
  S. mutans (MIC): 16 µg/mL

## FIKHFIHRF [2_1]
S. mutans biofilms
  binding to S. mutans biofilms: retain biofilm binding

## FIRKFLKKWLL-NH2 [BD2.20, FIRKFLKKWLL]
S. aureus
  S. aureus growth after treatment (culture recovery, OD600): inhibited
S. epidermidis [2]
  recoverable S. epidermidis cfu/mL in mixed culture (in words): significant loss of recoverable cfu/mL
P. aeruginosa [8]
  P. aeruginosa growth after treatment (culture recovery, OD600): robust antimicrobial activity
P. aeruginosa [3]
  recoverable P. aeruginosa cfu/mL in mixed culture (in words): significant loss of recoverable cfu/mL
E. coli [9]
  E. coli growth after treatment (culture recovery, OD600): inhibited
E. coli [4]
  recoverable E. coli cfu/mL in mixed culture (in words): significant loss of recoverable cfu/mL
S. mutans [5]
  S. mutans growth after treatment (culture recovery, OD600): robust antimicrobial activity
S. epidermidis [10]
  S. epidermidis growth after treatment (culture recovery, OD600): inhibited
S. mutans [6]
  recoverable S. mutans cfu/mL in mixed culture (in words): significant loss of recoverable cfu/mL

## FRHIFHKIFGGGFHLHFHF-NH2 [2_1i(L1)135i, FRHIFHKIFGGGFHLHFHF]
S. mutans [1]
  S. mutans (MIC): 16 µg/mL

## LIKHILHRL [3_1]
S. mutans biofilms
  binding to S. mutans biofilms: retain biofilm binding

## WWHSWWSTW [1_2]
S. mutans biofilms
  binding to S. mutans biofilms: retain biofilm binding

## WWKDWWERW [1_4]
S. mutans biofilms
  binding to S. mutans biofilms: retain biofilm binding

## WWQDWWNEW [1_6]
S. mutans biofilms
  binding to S. mutans biofilms: retain biofilm binding

## WWSYWWTQW [1_3]
S. mutans biofilms
  binding to S. mutans biofilms: retain biofilm binding
